Converted amounts (≈) assume the structure as drawn. “And” between values parts separate entries of the source, which are not always exact repeats. Equal values may be shown once. Read-outs that look alike come from different tables or passages of the source.
Tests used:
[1] = test system: bacteria phosphotransferase system (PTS) of E. coli mutant 1219bgl+; experiment: microbe, parasite or virus in culture; assay type: cell-based; conditions: for IC50: pH 6.5, read-out: EC50
Text: Since the phosphotransferase system for the bacterial cell is an essential transport system for the reception of extracellular carbohydrates, a possible inhibition or adverse effect of the participating enzymes should be noticed to cause a reduction in the carbohydrate transport, that is the PTS constitutes a potential possibility for the detection of toxic substances in microorganisms. […] Said analog is of such a nature that it, in phosphorylated form after the cell transport, can be hydrolyzed by an enzyme in the bacterial cell under the release of a substance susceptible to analysis. If, for instance, 2-nitrophenyl-β-D-glucoside is used as substrate analog, this will be channeled by the PTS under phosphorylation into a bacterial cell, where the ONP-Glc-6-P is broken down hydrolytically by the inducible 6-phospho-β-glucosidase B to Glc-6-P and 2-nitrophenyl. The released 2-nitrophenyl can then, by means of photometry, be quantitatively measured as phenolate-anion after a defined time span. Additionally, with E. coli mutant 1219bgl+ a bacterium is present that is characterized by increased β-glycoside activity, yet is not transformed through genetic engineering nor is pathogenic, which is an important prerequisite for harmless work with bacteria.
The test occurs with a total reaction volume of 500 μl in Eppendorf cups, the O.D.578 of the bacteria suspension amounting to 3.0.
The E. coli cultures of the mutant 1219 bgl+, preserved at -20° C., are first thawed to be reactivated during 10 min. at room temperature. They are then suspended in 250 μl of 50 mM buffer and together with the appropriate test solution and distilled water brought to a volume of 480 μl . This suspension is then pre-incubated over a time span of 10-15 minutes at 37° C. After that, the reaction is started by adding 20 μl of ONP-glucose (50 mM) (equivalent to a final concentration in the reaction batch of 2 mM). The reaction mixture is incubated over a time span of 5 minutes at 37° C. After the end of this reaction time the reaction is terminated by adding 1 ml of Na2 CO3 (0.5M). After a 2 minute centrifugation at 17,000×g the substrate transformations of the tested bacteria suspensions are photometrically determined at 405 nm.
The evaluation of the PTS test with ONP-glycosides is done by means of the toxicological characteristic quantity of the "efficient concentration", (the EC value). It is hereinunder understood with such a concentration of added toxic substance that a measurable parameter of an organism will be inhibited to a certain extent within a freely defined time span. The percentage of adverse effect of the parameter to be measured is indicated by the attached index.
The conversion of the registered percentage inhibitory values into EC values is carried out with the help of the gamma method (Johnson, F. H., Eyring, H. and Stover, B. J., 1974; The theory of rate processes in biology and medicine, John Wiley & Sons, New York: 1-385). With the aid of the O.D.405, registered in the PTS inhibition test, the quotient is formed from the ONP-glycoside cleavage output and the remaining ONP-glycoside cleavage. [formula] O.D.405 : Substrate transformation without toxic substance solution. D O.D.405 : Output of the substrate transformation after incubation with the toxic substance solution.
The gamma values hereby obtained are used against the employed concentration of toxic substance, in a double logarithmic representation. […]

[2] = test system: Vibrio fischen; conditions: cited from earlier work
[3] = test system: E. coli mutant 1219bgl+ PTS; experiment: ONP-glycoside cleavage in dependency on substrate concentration (Lineweaver-Burk); assay type: cell-based; conditions: Lineweaver-Burk process
Protocol: Looking more closely into the ONP-glycoside cleavage in dependency on substrate concentration, we find the presence of saturation kinetics without substrate inhibition (FIG. 4). […] Since, when increasing the substrate concentration, there was no further velocity increase to be registered, the dosage of the substrate to be used, according to the invention, takes place in accord with a cost and efficiency weighting at 2 mM. When performing the PTS inhibition test, in accordance with the invention, it also turned out that the sensitivity of the test is clearly dependent on the kind of buffer used. It was particularly conspicuous that phosphate buffer has a clearly stimulating effect on the ONP-glycoside hydrolysis, whereas, on the other hand, when performing the inhibition test with heavy metals as toxic substances, the strongest inhibitory effects were to be registered when using the HEPES buffer. It should however be taken into account that a phosphate buffer in the presence of heavy metal salts is less suitable due to solubility problems that then might occur. Therefore when testing heavy metals, the HEPES buffer should preferably be chosen.

[4] = heavy metal ions as chlorides, HEPES buffer pH 6.5, 37° C., 5 min reaction, 5 min
[5] = heavy metal ions as chlorides, HEPES buffer pH 6.5, 37° C., 5 min reaction, read-out: EC50
[6] = reaction time 10 min, Beckmann, 1980
[7] = Escherichia coli, pH 6.5, read-out: EC10, organic solvents, 50 mM phosphate buffer pH 6.5
[8] = organic solvents, 50 mM phosphate buffer pH 6.5

[Cd+2] [Cd^2+]
EC50 [1, 4]: 19 ppm
EC50 [1, 5]: 169 µM
Bioluminescent Inhibition Test EC50 (ppm) [2, 6]: 131 ppm

ClC(Cl)Cl [Chloroform, chloroform]
IC50 ([1]; Escherichia coli, 5 min): 1900 µg/mL (≈ 15.9 mM)
EC50 ([1]; Escherichia coli, pH 6.5): 15900 µM
IC10 [1, 7]: 720 µg/mL and 6 µM
Bioluminescent Inhibition Test EC50 (ppm) ([2]; vibrio fischeri luminescence): 1,168

[Cr+3] [Cr^3+]
EC50 [1, 4]: 16 ppm

[Cu+2] [Cu^2+]
EC50 [1, 4]: 11 ppm
EC50 [1, 5]: 173 µM
Bioluminescent Inhibition Test EC50 (ppm) [2, 6]: 16 ppm

ClCCCl [Dichloroethane, dichloroethane]
inhibition of ONP-glucose transformation ([1]; at approx. 3,500 ppm (approximative 35 μM as printed), phosphate buffer pH 6.5, no extrapolation to gamma values possible): about 30%

C1COCCO1 [Dioxan, dioxan]
IC50 ([1]; Escherichia coli, 5 min): 30000 µg/mL (≈ 340 mM)
IC10 [1, 7]: 10000 µg/mL and 114 µM
EC10 [1, 8]: approx. 10,000 ppm

CCO [Ethanol, ethanol]
IC50 ([1]; Escherichia coli, 5 min): 33000 µg/mL (≈ 716 mM)
IC10 [1, 7]: 10500 µg/mL and 288 µM
EC10 [1, 8]: approx. 10,500 ppm
Bioluminescent Inhibition Test EC50 (ppm) ([2]; vibrio fischeri luminescence): 31,000

[Hg+2] [Hg^2+]
maximal inhibition ([1]; HEPES buffer pH 6.5): about 70%
EC50 [1, 4]: 2.1 ppm
EC50 [1, 5]: 10.3 µM
Bioluminescent Inhibition Test EC50 (ppm) ([2]; reaction time 5 min, Bulich et al., 1981): 0.065 ppm

[Ni+2] [Ni^2+]
maximal inhibition ([1]; HEPES buffer pH 6.5): about 70%
EC50 [1, 4]: 4.5 ppm
EC50 [1, 5]: 76.6 µM

O=[N+]([O-])c1ccccc1O[C@@H]1O[C@H](CO)[C@@H](O)[C@H](O)[C@H]1O [ONP-glycoside, 2-nitrophenyl-β-D-glucoside]
Km [3]: 2000 µM
maximal reaction velocity [3]: 42 nmol/min/mL

[Pb+2] [Pb^2+]
EC50 [1, 4]: 67 ppm
EC10 ([1]; heavy metal ions as chlorides, HEPES buffer pH 6.5, 37° C., 5 min reaction, listed as Pb^+): 120 µM
EC50 [1, 5]: 322 µM
Bioluminescent Inhibition Test EC50 (ppm) ([2]; reaction time 30 min, Beckmann, 1981): 0.4 ppm

Oc1ccccc1 [Phenol, phenol]
IC50 ([1]; Escherichia coli, 5 min): 1400 µg/mL (≈ 14.9 mM)
EC50 ([1]; Escherichia coli, pH 6.5): 14900 µM
IC10 [1, 7]: 350 µg/mL and 3.7 µM
Bioluminescent Inhibition Test EC50 (ppm) ([2]; vibrio fischeri luminescence): 25

CCCCCCCCCCCCOS(=O)(=O)O [SDS]
IC50 ([1]; Escherichia coli, 5 min): 13 µg/mL (≈ 0.0488 mM)
EC50 ([1]; Escherichia coli, pH 6.5): 45.1 µM
IC10 ([1]; Escherichia coli, pH 6.5, read-out: EC10, detergents, 50 mM HEPES buffer pH 6.5): 5.5 µg/mL and ~19 µM

Cc1ccccc1 [Toluene, toluene]
IC50 ([1]; Escherichia coli, 5 min): 35 µg/mL (≈ 0.38 mM)
EC50 ([1]; Escherichia coli, pH 6.5): 380 µM

[Zn+2] [Zn^2+]
EC50 [1, 4]: 8 ppm
EC50 [1, 5]: 122 µM
Bioluminescent Inhibition Test EC50 (ppm) [2, 6]: 25.4 ppm

Triton X-100
EC50 ([1]; detergents, 50 mM HEPES buffer pH 6.5, 5 min): 180 ppm

— patent publication US5672470A, “Microbial process for detection of toxic substances” (priority 1994, dated 1997)
